Data reported in publication PMC6532911, “Oryza sativa Brittle Culm 1-like 6 modulates β-glucan levels in the endosperm cell wall” (PLoS ONE, 2019).

Target: T1, CBM-GST (CBM of OsBC1L6) (Oryza sativa, UniProt Q6Z4G8)
T1 construct: gene BC1L6; wheat germ cell-free expression; 48 kDa by SDS-PAGE
T1 sequence (Q6Z4G8 31-191): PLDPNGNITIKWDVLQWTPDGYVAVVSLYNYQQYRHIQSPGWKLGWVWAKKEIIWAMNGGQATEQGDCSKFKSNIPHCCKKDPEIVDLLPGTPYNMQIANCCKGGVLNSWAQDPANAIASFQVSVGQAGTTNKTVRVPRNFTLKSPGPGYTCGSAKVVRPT
Test: surface plasmon resonance (Biacore T200)
Type: binding
Conditions: CBM-GST captured by anti-GST on CM5 chip; HBS-EP pH 7.4, 25°C

Structure (SMILES)	Kd
OC1OC[C@@H](O[C@@H]2OC[C@@H](O[C@@H]3OC[C@@H](O[C@@H]4OC[C@@H](O[C@@H]5OC[C@@H](O[C@@H]6OC[C@@H](O)[C@H](O)[C@H]6O)[C@H](O)[C@H]5O)[C@H](O)[C@H]4O)[C@H](O)[C@H]3O)[C@H](O)[C@H]2O)[C@H](O)[C@H]1O (some centres unmarked) [XXXXXX, xylohexaose]	760 µM
OC[C@H]1O[C@@H](O[C@H]2[C@H](O)[C@@H](O)[C@H](O[C@H]3[C@H](O)[C@@H](O)[C@H](O[C@H]4[C@H](O)[C@@H](O)[C@H](O[C@H]5[C@H](O)[C@@H](O)[C@H](O[C@H]6[C@H](O)[C@@H](O)C(O)O[C@@H]6CO)O[C@@H]5CO)O[C@@H]4CO)O[C@@H]3CO)O[C@@H]2CO)[C@H](O)[C@@H](O)[C@@H]1O (some centres unmarked) [GGGGGG, cellohexaose]	852 µM
